Several values for one entry are separate records, joined by “and”; a condition that tells them apart may be missing. Equal entries are not always repeated. Where two headings read alike, the source gives them in different places.
Assays:
[1] = tested on: HEK293; assay: LDH cytotoxicity assay on supernatants of the treated cells; type: cell-based, Human
Method: Cytotoxicity assays using the supernatants from the treated cells were conducted using an LDH Cytotoxicity Detection Kit (Roche) according to the manufacturer's instructions.

[2] = tested on: phosphorylated p65; assay: p65 phosphorylation in brain after intracranial TNFα; type: in vivo, Wild-type mice (B6/SJL); conditions: 2 mg/kg i.p., mouse brain, normalized to actin
Method: After 5 minutes, mice were intracranially injected with 0.5 mg of TNFα. Mice were euthanized ten minutes after the intracranial injection. The portion of the brain surrounding the intracranial site of injection was collected, and proteins were extracted. Phosphorylation of p65 was measured with an antibody towards phosphorylated p65.

[3] = Concentration in brain extracts after single i.v. bolus; type: in vivo, Sprague-Dawley rats; conditions: for concentration at 0.5 h / concentration at 24 h / concentration at 6 h: Sprague-Dawley, rat, brain, intravenous
Method: Six rats (3 males and 3 females) were dosed per dose group. […] Plasma and brain homogenates were stored at −80° C. until analysis.
An additional 48 rats (24 males and 24 females) received a single intravenous dose via the tail vein at the same doses as mentioned above. At 30 and 360 minutes post administration, 6 rats (3 males and 3 females) per dose group, per time point were euthanized, bled via cardiac puncture, and perfused, and brains were collected. The brains were homogenized. Blood was spun, and plasma was collected. Plasma and brain homogenate were stored at −80° C.
The animals were weighed prior to dosing and received a single i.v. dose of either test compound at a volume of 5 mL/kg. Blood was collected via the venus plexus (retro-orbital) into tubes containing (K2) EDTA. No more than 0.5 mL was collected per time point. […] The brain was removed, weighed, homogenized in sterile 0.9% saline at a volume equal to its weight, and stored at −80° C.
Sample preparation. […] The amount of the test agent in the supernatant was determined by liquid chromatography tandem mass spectrometry (LC/MS/MS).
Analysis. Samples were analyzed by LC/MS/MS using an Agilent 6410 mass spectrometer coupled with an Agilent 1200 high pressure liquid chromatography (HPLC) and a CTC PAL chilled autosampler, all controlled by MassHunter software (Agilent). After separation on a hydrophilic interaction liquid chromatography (HILIC) HPLC column (Sepax) using an acetonitrile-ammonium acetate/acetic acid gradient system, peaks were analyzed by mass spectrometry (MS) using ESI ionization in multiple reaction monitoring (MRM) mode. MassHunter software was used to calculate the concentration of the test compounds in samples from the peak area using the appropriate calibration curves.
Calibration samples. Calibration curves were determined for both rat plasma and brain homogenate. Calibration samples were prepared by diluting a 50× stock solution of the test compound in PBS with blank matrix to the appropriate concentration and these samples were prepared as described above in the sample preparation.

[4] = tested on: Experimental Autoimmune Thyroiditis; assay: Experimental Autoimmune Thyroiditis (Example 16A): serum antibodies to PPD and thyroglobulin; type: in vivo, mice
Method: Thyroiditis was induced by injection of thyroglobulin emulsified in complete Freund's adjuvant (CFA). On days 0 and 7, female mice received subcutaneous injection of 100 μg thyroglobulin (2 injections of 50 μg each). Control mice drank water. […] Mice were sacrificed on day 21.
Immunochemistry. Serum from control and anatabine-treated mice was examined to determine levels of antibodies to a foreign antigen (PPD).
Levels of antibodies to thyroglobulin were examined on days 7, 14, and 21 after immunization.

C1=CCC(c2cccnc2)NC1 (racemic) [Anatabine, 1,2,3,6-tetrahydro-[2,3′]bipyridinyl]
cytotoxicity (LDH release) [1]: without cellular toxicity | p65 phosphorylation [2]: reduced p65 phosphorylation in mouse brain | Concentration of anatabine in rat brain extract ([3]; Anatabine 0.1 mg/kg, Rat Brain, 0.5 hr, individual rats): <LLQ and 21 ng/mL and 34 ng/mL and 25 ng/mL and 30 ng/mL | Concentration of anatabine in rat brain extract ([3]; Anatabine 0.1 mg/kg, Rat Brain, 6 hr, individual rats): 3 ng/mL and <LLQ (2×) and 5 ng/mL and 4 ng/mL and 2 ng/mL | Concentration of anatabine in rat brain extract ([3]; Anatabine 0.1 mg/kg, Rat Brain, 24 hr, individual rats): <LLQ (4×) and 2 ng/mL | Concentration of anatabine in rat brain extract ([3]; Anatabine 0.75 mg/kg, Rat Brain, 0.5 hr, individual rats): 317 ng/mL and 393 ng/mL | Concentration of anatabine in rat brain extract ([3]; Anatabine 0.75 mg/kg, Rat Brain, 6 hr, individual rats): 28 ng/mL and 19 ng/mL and 17 ng/mL and 27 ng/mL and 20 ng/mL | Concentration of anatabine in rat brain extract ([3]; Anatabine 0.75 mg/kg, Rat Brain, 24 hr, individual rats): <LLQ | Avg. Conc. rat brain ([3]; Anatabine 0.75 mg/kg, female, 24 hr): <LLQ | Avg. Conc. rat brain, combined male and female ([3]; Anatabine 0.75 mg/kg, male and female, 24 hr): <LLQ | Avg. Conc. rat brain ([3]; Anatabine 0.75 mg/kg, male, 24 hr): <LLQ | Concentration of anatabine in rat brain extract ([3]; Anatabine 1.0 mg/kg, Rat Brain, 0.5 hr, individual rats): 338 ng/mL and 362 ng/mL and 393 ng/mL | Concentration of anatabine in rat brain extract ([3]; Anatabine 1.0 mg/kg, Rat Brain, 6 hr, individual rats): 3 ng/mL and 4 ng/mL (2×) and 8 ng/mL (2×) and <LLQ | Concentration of anatabine in rat brain extract ([3]; Anatabine 1.0 mg/kg, Rat Brain, 24 hr, individual rats): 2 ng/mL and <LLQ (4×) | Avg. Conc. rat brain ([3]; Anatabine 1.0 mg/kg, female, 24 hr): <LLQ | concentration at 0.5 h ([3]; 0.1 mg/kg, Concentration of anatabine in rat brain extract, Anatabine 0.1 mg/kg, Rat Brain, 0.5 hr, individual rats): 19 ng/mL | concentration at 24 h ([3]; 0.1 mg/kg, Concentration of anatabine in rat brain extract, Anatabine 0.1 mg/kg, Rat Brain, 24 hr, individual rats): 3 ng/mL | concentration at 24 h ([3]; 1 mg/kg, Concentration of anatabine in rat brain extract, Anatabine 1.0 mg/kg, Rat Brain, 24 hr, individual rats): 3 ng/mL | Mean concentration in rat brain extracts ([3]; anatabine 0.75 mg/kg i.v., 24 hr, Female): <LLQ | Mean concentration in rat brain extracts ([3]; anatabine 0.75 mg/kg i.v., 24 hr, Male): <LLQ | Mean concentration in rat brain extracts ([3]; anatabine 1.0 mg/kg i.v., 24 hr, Female): <LLQ | concentration at 0.5 h ([3]; both sexes, 0.1 mg/kg, Anatabine 0.1 mg/kg, male and female, 0.5 hr, read-out: Avg. Conc. rat brain, combined male and female): 25.8 ng/g | concentration at 6 h ([3]; both sexes, 0.1 mg/kg, Anatabine 0.1 mg/kg, male and female, 6 hr, read-out: Avg. Conc. rat brain, combined male and female): 3.5 ng/g | concentration at 24 h ([3]; both sexes, 0.1 mg/kg, Anatabine 0.1 mg/kg, male and female, 24 hr, read-out: Avg. Conc. rat brain, combined male and female): 2.5 ng/g | concentration at 0.5 h ([3]; both sexes, 0.75 mg/kg, Anatabine 0.75 mg/kg, male and female, 0.5 hr, read-out: Avg. Conc. rat brain, combined male and female): 295 ng/g | concentration at 6 h ([3]; both sexes, 0.75 mg/kg, Anatabine 0.75 mg/kg, male and female, 6 hr, read-out: Avg. Conc. rat brain, combined male and female): 21.2 ng/g | concentration at 6 h ([3]; both sexes, 0.75 mg/kg, Concentration of anatabine in rat brain extract, Anatabine 0.75 mg/kg, Rat Brain, 6 hr, individual rats): 16 ng/mL | concentration at 0.5 h ([3]; both sexes, 1 mg/kg, Anatabine 1.0 mg/kg, male and female, 0.5 hr, read-out: Avg. Conc. rat brain, combined male and female): 334 ng/g | concentration at 6 h ([3]; both sexes, 1 mg/kg, Anatabine 1.0 mg/kg, male and female, 6 hr, read-out: Avg. Conc. rat brain, combined male and female): 5.4 ng/g | concentration at 24 h ([3]; both sexes, 1 mg/kg, Anatabine 1.0 mg/kg, male and female, 24 hr, read-out: Avg. Conc. rat brain, combined male and female): 2.5 ng/g | concentration at 0.5 h ([3]; both sexes, 1 mg/kg, Concentration of anatabine in rat brain extract, Anatabine 1.0 mg/kg, Rat Brain, 0.5 hr, individual rats): 349 ng/mL | concentration at 0.5 h ([3]; female, 0.1 mg/kg, Anatabine 0.1 mg/kg, female, 0.5 hr, read-out: Avg. Conc. rat brain): 29.7 ng/g | concentration at 6 h ([3]; female, 0.1 mg/kg, Anatabine 0.1 mg/kg, female, 6 hr, read-out: Avg. Conc. rat brain): 3.7 ng/g | concentration at 24 h ([3]; female, 0.1 mg/kg, Anatabine 0.1 mg/kg, female, 24 hr, read-out: Avg. Conc. rat brain): 2 ng/g | concentration at 0.5 h ([3]; female, 0.1 mg/kg, anatabine 0.1 mg/kg i.v., 0.5 hr, Female, read-out: Mean concentration in rat brain extracts): 29.7 ± 4.5 ng/g | concentration at 6 h ([3]; female, 0.1 mg/kg, anatabine 0.1 mg/kg i.v., 6 hr, Female, read-out: Mean concentration in rat brain extracts): 3.7 ± 1.5 ng/g | concentration at 24 h ([3]; female, 0.1 mg/kg, anatabine 0.1 mg/kg i.v., 24 hr, Female, read-out: Mean concentration in rat brain extracts): 2 ng/g | concentration at 0.5 h ([3]; female, 0.75 mg/kg, Anatabine 0.75 mg/kg, female, 0.5 hr, read-out: Avg. Conc. rat brain): 315 ng/g | concentration at 6 h ([3]; female, 0.75 mg/kg, Anatabine 0.75 mg/kg, female, 6 hr, read-out: Avg. Conc. rat brain): 21 ng/g | concentration at 0.5 h ([3]; female, 0.75 mg/kg, anatabine 0.75 mg/kg i.v., 0.5 hr, Female, read-out: Mean concentration in rat brain extracts): 315 ± 67.9 ng/g | concentration at 6 h ([3]; female, 0.75 mg/kg, anatabine 0.75 mg/kg i.v., 6 hr, Female, read-out: Mean concentration in rat brain extracts): 21 ± 6.2 ng/g | concentration at 0.5 h ([3]; female, 1 mg/kg, Anatabine 1.0 mg/kg, female, 0.5 hr, read-out: Avg. Conc. rat brain): 346 ng/g | concentration at 6 h ([3]; female, 1 mg/kg, Anatabine 1.0 mg/kg, female, 6 hr, read-out: Avg. Conc. rat brain): 6 ng/g | concentration at 0.5 h ([3]; female, 1 mg/kg, anatabine 1.0 mg/kg i.v., 0.5 hr, Female, read-out: Mean concentration in rat brain extracts): 346 ± 56.7 ng/g | concentration at 6 h ([3]; female, 1 mg/kg, anatabine 1.0 mg/kg i.v., 6 hr, Female, read-out: Mean concentration in rat brain extracts): 6 ± 2.8 ng/g | concentration at 0.5 h ([3]; male, 0.1 mg/kg, Anatabine 0.1 mg/kg, male, 0.5 hr, read-out: Avg. Conc. rat brain): 20 ng/g | concentration at 6 h ([3]; male, 0.1 mg/kg, Anatabine 0.1 mg/kg, male, 6 hr, read-out: Avg. Conc. rat brain): 3 ng/g | concentration at 24 h ([3]; male, 0.1 mg/kg, Anatabine 0.1 mg/kg, male, 24 hr, read-out: Avg. Conc. rat brain): 3 ng/g | concentration at 0.5 h ([3]; male, 0.1 mg/kg, anatabine 0.1 mg/kg i.v., 0.5 hr, Male, read-out: Mean concentration in rat brain extracts): 20 ± 1.4 ng/g | concentration at 6 h ([3]; male, 0.1 mg/kg, anatabine 0.1 mg/kg i.v., 6 hr, Male, read-out: Mean concentration in rat brain extracts): 3 ng/g | concentration at 24 h ([3]; male, 0.1 mg/kg, anatabine 0.1 mg/kg i.v., 24 hr, Male, read-out: Mean concentration in rat brain extracts): 3 ng/g | concentration at 0.5 h ([3]; male, 0.75 mg/kg, Anatabine 0.75 mg/kg, male, 0.5 hr, read-out: Avg. Conc. rat brain): 276 ng/g | concentration at 6 h ([3]; male, 0.75 mg/kg, Anatabine 0.75 mg/kg, male, 6 hr, read-out: Avg. Conc. rat brain): 21.3 ng/g | concentration at 0.5 h ([3]; male, 0.75 mg/kg, anatabine 0.75 mg/kg i.v., 0.5 hr, Male, read-out: Mean concentration in rat brain extracts): 276 ± 37 ng/g | concentration at 0.5 h ([3]; male, 1 mg/kg, Anatabine 1.0 mg/kg, male, 0.5 hr, read-out: Avg. Conc. rat brain): 323 ng/g | concentration at 6 h ([3]; male, 1 mg/kg, Anatabine 1.0 mg/kg, male, 6 hr, read-out: Avg. Conc. rat brain): 5 ng/g | concentration at 24 h ([3]; male, 1 mg/kg, Anatabine 1.0 mg/kg, male, 24 hr, read-out: Avg. Conc. rat brain): 2.5 ng/g | concentration at 0.5 h ([3]; male, 1 mg/kg, anatabine 1.0 mg/kg i.v., 0.5 hr, Male, read-out: Mean concentration in rat brain extracts): 323 ± 35.9 ng/g | concentration at 6 h ([3]; male, 1 mg/kg, anatabine 1.0 mg/kg i.v., 6 hr, Male, read-out: Mean concentration in rat brain extracts): 5 ± 2.6 ng/g | concentration at 24 h ([3]; male, 1 mg/kg, anatabine 1.0 mg/kg i.v., 24 hr, Male, read-out: Mean concentration in rat brain extracts): 2.5 ± 0.7 ng/g | appearance in brain tissue following i.v. administration ([3]; single i.v., rats): rapidly appear in brain tissue | levels of antibodies to PPD ([4]; 0.05 mg/ml in drinking water, versus control): no significant difference | levels of antibodies to thyroglobulin ([4]; day 7): no significant difference | levels of antibodies to thyroglobulin ([4]; day 14, p=0.086): tended to have lower thyroglobulin antibodies | levels of antibodies to thyroglobulin ([4]; day 21): no significant difference

From patent publication US20120196899A1, “METHODS AND PRODUCTS FOR TREATING INFLAMMATION” (Rock Creek Pharmaceuticals, Inc., priority 2010, published 2012)
